From the NIST ThermoML archive (doi:10.1021/je060271a)

Conditions: 303.15 K, Liquid, Vibrating tube method

CCCCCCC(=O)OCC(COC(=O)CCCCCC)(COC(=O)CCCCCC)COC(=O)CCCCCC [pentaerythritol tetraheptanoate]
Conditions	mass density [kg/m3]
21619 kPa	983.7
21662 kPa	983.7
21713 kPa	983.7
21752 kPa	983.7
21789 kPa	983.5
21831 kPa	983.9
21867 kPa	983.8
21902 kPa	983.8
22017 kPa	983.9
22097 kPa	984
22133 kPa	983.9
22169 kPa	984.1
22213 kPa	984
22250 kPa	983.9
22286 kPa	984.1
22330 kPa	984.1
22368 kPa	984.2
22406 kPa	984.1
22450 kPa	984.2
22567 kPa	984.2
22651 kPa	984.2
22689 kPa	984.3
22735 kPa	984.3
22774 kPa	984.3
22813 kPa	984.3
22853 kPa	984.3
22901 kPa	984.4
23031 kPa	984.5
23066 kPa	984.4
23098 kPa	984.5
23130 kPa	984.5
23162 kPa	984.4
23201 kPa	984.5
23233 kPa	984.6
23266 kPa	984.7
23304 kPa	984.6
23337 kPa	984.5
23376 kPa	984.7
23409 kPa	984.6
23442 kPa	984.6
23475 kPa	984.8
23516 kPa	984.8
23549 kPa	984.7
23582 kPa	984.8
23622 kPa	984.7
23797 kPa	984.9
23831 kPa	985
23873 kPa	984.9
23908 kPa	985
23943 kPa	985
23985 kPa	985
24019 kPa	984.9
24054 kPa	985
24201 kPa	985.1
24243 kPa	985.2
24278 kPa	985.2
24320 kPa	985.2
24392 kPa	985.2
24436 kPa	985.2
24472 kPa	985.4
24509 kPa	985.1
24545 kPa	985.2
24588 kPa	985.3
24624 kPa	985.4
24661 kPa	985.3
24706 kPa	985.3
24743 kPa	985.5
24780 kPa	985.5
24825 kPa	985.4
24863 kPa	985.4
24901 kPa	985.4
24947 kPa	985.5
24984 kPa	985.5
25022 kPa	985.6
25060 kPa	985.5
25106 kPa	985.6
25144 kPa	985.5
25182 kPa	985.7
25228 kPa	985.7
25267 kPa	985.6
25306 kPa	985.6
25353 kPa	985.7
25392 kPa	985.7
25431 kPa	985.8
25472 kPa	985.7
25520 kPa	985.8
25560 kPa	986
25601 kPa	986
25648 kPa	985.9
25688 kPa	985.8
25729 kPa	985.9
25778 kPa	985.9
25818 kPa	986
25860 kPa	986
25901 kPa	986.1
25951 kPa	986
25994 kPa	986
26038 kPa	986
26079 kPa	986.1
26130 kPa	986.1
26172 kPa	986.2
26215 kPa	986.2
26266 kPa	986.2
26309 kPa	986.3
26347 kPa	986.3
26391 kPa	986.3
26429 kPa	986.4
26466 kPa	986.4
26512 kPa	986.4
26551 kPa	986.4
26590 kPa	986.3
26628 kPa	986.5
26666 kPa	986.5
26712 kPa	986.5
26749 kPa	986.4
26795 kPa	986.4
26834 kPa	986.6
26872 kPa	986.6
26910 kPa	986.6
26957 kPa	986.6
26996 kPa	986.6
27043 kPa	986.5
27083 kPa	986.7
27122 kPa	986.7
27169 kPa	986.7
27209 kPa	986.8
27249 kPa	986.7
27289 kPa	987
27337 kPa	986.8
27376 kPa	986.8
27425 kPa	986.9
27465 kPa	987
27506 kPa	986.9
27555 kPa	986.8
27596 kPa	986.9
27638 kPa	986.9
27679 kPa	987.1
27728 kPa	987
27770 kPa	987
27811 kPa	987.1
27861 kPa	987.1
27904 kPa	987
27954 kPa	987.1
27997 kPa	987.2
28082 kPa	987.3
28133 kPa	987.4
28176 kPa	987.3
28221 kPa	987.4
28273 kPa	987.3
28316 kPa	987.3
28360 kPa	987.4
28404 kPa	987.3
28457 kPa	987.4
28501 kPa	987.5
28545 kPa	987.5
28598 kPa	987.5
28642 kPa	987.5
28687 kPa	987.5
28740 kPa	987.6
28785 kPa	987.6
28832 kPa	987.7
28886 kPa	987.6
28932 kPa	987.7
28977 kPa	987.6
29023 kPa	987.9
29079 kPa	987.7
29125 kPa	987.7
29181 kPa	987.8
29227 kPa	987.9
29274 kPa	987.9
29321 kPa	987.9
29379 kPa	987.9
29475 kPa	988
29523 kPa	988.1
29581 kPa	988
29630 kPa	988
29679 kPa	988.1
29739 kPa	988.1
29790 kPa	988.1
29841 kPa	988.3
29903 kPa	988.1
29949 kPa	988.3
29986 kPa	988.3
30029 kPa	988.3
30067 kPa	988.3
30103 kPa	988.3
30138 kPa	988.3
30182 kPa	988.4
30218 kPa	988.3
30253 kPa	988.3
30297 kPa	988.2
30334 kPa	988.4
30370 kPa	988.5
30407 kPa	988.5
30451 kPa	988.5
30489 kPa	988.5
30527 kPa	988.5
30576 kPa	988.6
30613 kPa	988.5
30651 kPa	988.6
30698 kPa	988.6
30738 kPa	988.8
30778 kPa	988.7
30814 kPa	988.7
30846 kPa	988.7
30873 kPa	988.8
30905 kPa	988.7
30932 kPa	988.8
30958 kPa	988.8
30990 kPa	988.8
31018 kPa	988.8
31045 kPa	988.8
31072 kPa	988.9
31105 kPa	988.9
31132 kPa	988.9
31159 kPa	988.8
31192 kPa	989
31220 kPa	988.9
31252 kPa	989
31280 kPa	988.9
31308 kPa	989.1
31335 kPa	989
31369 kPa	989.1
31398 kPa	988.8
